According to ChEMBL document CHEMBL3832761, “MMV Pathogen Box Bioactivity Data” (2017):
Converted amounts (≈) assume the structure as drawn.

Key:
Assay type in all cases: functional
[1] = tested on: Mycobacterium tuberculosis; experiment: AntiMycobacterium tuberculosis activity Non-Replicating form: Average MIC90 (uM)
[2] = tested on: Mycobacterium tuberculosis; experiment: AntiMycobacterium tuberculosis activity 1-week GAST/Fe MIC (uM); details: 168 h
[3] = tested on: Mycobacterium tuberculosis; experiment: AntiMycobacterium tuberculosis activity 2-week GAST/Fe MIC (uM); details: 336 h
[4] = tested on: Mycobacterium tuberculosis; experiment: AntiMycobacterium tuberculosis activity 1-week 7H9/ADC/Tw MIC (uM); details: 168 h
[5] = tested on: Mycobacterium tuberculosis; experiment: AntiMycobacterium tuberculosis activity 2-week 7H9/ADC/Tw MIC (uM); details: 336 h
[6] = tested on: Mycobacterium tuberculosis; experiment: AntiMycobacterium tuberculosis activity 2-week Alamar Blue 7H9/ADC/Tw MIC (uM); details: 336 h
[7] = tested on: Mycobacterium tuberculosis; experiment: AntiMycobacterium tuberculosis activity 1-week 7H9/glucose/BSA/Tx MIC (uM); details: 168 h
[8] = tested on: Mycobacterium tuberculosis; experiment: AntiMycobacterium tuberculosis activity 2-week 7H9/glucose/BSA/Tx MIC (uM); details: 336 h
[9] = tested on: Mycobacterium tuberculosis; experiment: AntiMycobacterium tuberculosis activity 1-week 7H9/DPPC/cholesterol/BSA/Tx MIC (uM); details: 168 h
[10] = tested on: Mycobacterium tuberculosis; experiment: AntiMycobacterium tuberculosis activity 2-week 7H9/DPPC/cholesterol/BSA/Tx MIC (uM); details: 336 h
[11] = tested on: Mycobacterium tuberculosis; experiment: AntiMycobacterium tuberculosis activity 1-week 7H9/cholesterol/BSA/Tx MIC (uM); details: 168 h
[12] = tested on: Mycobacterium tuberculosis; experiment: AntiMycobacterium tuberculosis activity 2-week Alamar Blue 7H9/cholesterol/BSA/Tx MIC (uM); details: 336 h
[13] = tested on: Mycobacterium tuberculosis; experiment: (§1) AntiMycobacterium tuberculosis activity day 10 in 7H9/2.5mM butyrate/pH6/0.1mM nitrite MIC90 (uM); details: 240 h
[14] = tested on: Mycobacterium tuberculosis; experiment: AntiMycobacterium tuberculosis activity day 21 in 7H9/2.5mM butyrate/pH6/0.1mM nitrite MIC90 (uM); details: 504 h
[15] = tested on: Mycobacterium tuberculosis; experiment: as §1; details: 240 h; remark: listed apart in the source
[16] = tested on: Mycobacterium tuberculosis; experiment: AntiMycobacterium tuberculosis activity day 21 MIC99 in 7H9/2.5mM butyrate/pH6/0.1mM nitrite MIC99 (uM); details: 504 h
[17] = tested on: Mycobacterium tuberculosis; experiment: AntiMycobacterium tuberculosis activity Replicating form: Average MIC90 (uM)
[18] = tested on: HepG2; experiment: HepG2 CC50 (uM) Cytotoxicity; details: Homo sapiens

Structure (SMILES) | MIC90 [1] [µM] | MIC [2] [µM] | MIC [3] [µM] | MIC [4] [µM] | MIC [5] [µM] | MIC [6] [µM] | MIC [7] [µM] | MIC [8] [µM] | MIC [9] [µM] | MIC [10] [µM] | MIC [11] [µM] | MIC [12] [µM] | MIC90 [13] [µM] | MIC90 [14] [µM] | MIC90 [15] [µM] | MIC [16] [µM] | MIC90 [17] [µM] | CC50 [18] [µM]
CCOc1ccc(OCC(=O)Nc2cc(C)cc(C)c2)cc1 | 65 (≈ 19.5 µg/mL) | 3.13 (≈ 0.937 µg/mL) | 4.7 (≈ 1.41 µg/mL) | ≥ 50 | > 50 | > 50 | 50 (≈ 15 µg/mL) | > 50 | 50 (≈ 15 µg/mL) | > 50 | 50 (≈ 15 µg/mL) | > 50 | > 50 | > 50 | > 50 | > 50 | 82.3 (≈ 24.6 µg/mL) | > 100
Cc1ccc2nc(Cl)c(CNCc3cccs3)cc2c1 | 93.7 (≈ 28.4 µg/mL) | 0.78 (≈ 0.236 µg/mL) | 1.56 (≈ 0.472 µg/mL) | > 50 | > 50 | 50 (≈ 15.1 µg/mL) | > 50 | > 50 | 12.5 (≈ 3.79 µg/mL) | > 50 | 19 (≈ 5.75 µg/mL) | 37 (≈ 11.2 µg/mL) | > 50 | > 50 | > 50 | > 50 | > 100 | > 100
N#Cc1nc(-c2ccccc2F)oc1NCCc1ccccc1 | 75.5 (≈ 23.2 µg/mL) | 0.78 (≈ 0.24 µg/mL) | 1.56 (≈ 0.479 µg/mL) | > 50 | > 50 | 37 (≈ 11.4 µg/mL) | > 50 | > 50 | 12.5 (≈ 3.84 µg/mL) | 50 (≈ 15.4 µg/mL) | 19 (≈ 5.84 µg/mL) | 12.5 (≈ 3.84 µg/mL) | 50 (≈ 15.4 µg/mL) | > 50 | > 50 | > 50 | > 100 | > 100
COc1ccc(Cn2cnc3c(-c4ccco4)nc(Cl)nc32)cc1 | 8.43 (≈ 2.87 µg/mL) | 0.78 (≈ 0.266 µg/mL) | 1.56 (≈ 0.532 µg/mL) | > 50 | > 50 | 19 (≈ 6.47 µg/mL) | > 50 | > 50 | 4.7 (≈ 1.6 µg/mL) | > 50 | 6.25 (≈ 2.13 µg/mL) | 3.13 (≈ 1.07 µg/mL) | 50 (≈ 17 µg/mL) | > 50 | > 50 | > 50 | > 100 | > 100
C[C@]1(COc2ccc(N3CCC(Oc4ccc(OC(F)(F)F)cc4)CC3)cc2)Cn2cc([N+](=O)[O-])nc2O1 | 0.2 (≈ 0.107 µg/mL) | 0.1 (≈ 0.0534 µg/mL) | 0.15 (≈ 0.0802 µg/mL) | 0.07 (≈ 0.0374 µg/mL) | 0.15 (≈ 0.0802 µg/mL) | 0.15 (≈ 0.0802 µg/mL) | 0.2 (≈ 0.107 µg/mL) | 0.05 (≈ 0.0267 µg/mL) | < 0.02 | 0.1 (≈ 0.0534 µg/mL) | 0.05 (≈ 0.0267 µg/mL) | 0.6 (≈ 0.321 µg/mL) | 0.39 (≈ 0.208 µg/mL) | 12.5 (≈ 6.68 µg/mL) | > 50 | > 50 | 0.08 (≈ 0.0428 µg/mL) | 72.5
O=C(NC1=NCCS1)c1sc2cc(F)ccc2c1Cl | 39.3 (≈ 12.4 µg/mL) | 0.6 (≈ 0.189 µg/mL) | 1.2 (≈ 0.378 µg/mL) | > 50 | > 50 | 9.4 (≈ 2.96 µg/mL) | > 50 | > 50 | 6.25 (≈ 1.97 µg/mL) | > 50 | 3.13 (≈ 0.985 µg/mL) | 3.13 (≈ 0.985 µg/mL) | 3.12 (≈ 0.982 µg/mL) | 12.5 (≈ 3.93 µg/mL) | 3.12 (≈ 0.982 µg/mL) | 12.5 (≈ 3.93 µg/mL) | > 100 | > 100
COc1ccc(C2(C(=O)Nc3ccc(Br)cc3)CCCC2)cc1 | 46.5 (≈ 17.4 µg/mL) | 19 (≈ 7.11 µg/mL) | 19 (≈ 7.11 µg/mL) | 19 (≈ 7.11 µg/mL) | 12.5 (≈ 4.68 µg/mL) | 12.5 (≈ 4.68 µg/mL) | 12.5 (≈ 4.68 µg/mL) | 12.5 (≈ 4.68 µg/mL) | 12.5 (≈ 4.68 µg/mL) | 9.4 (≈ 3.52 µg/mL) | 9.4 (≈ 3.52 µg/mL) | 12.5 (≈ 4.68 µg/mL) | 50 (≈ 18.7 µg/mL) | 50 (≈ 18.7 µg/mL) | > 50 | 50 (≈ 18.7 µg/mL) | 26.5 (≈ 9.93 µg/mL) | > 100
CCc1nc2ccccc2n1CC(O)COc1cc(C)ccc1Cl (configuration not stated) | 70 (≈ 24.1 µg/mL) | 12.5 (≈ 4.31 µg/mL) | 12.5 (≈ 4.31 µg/mL) | 37 (≈ 12.8 µg/mL) | ≥ 50 | 37 (≈ 12.8 µg/mL) | 37 (≈ 12.8 µg/mL) | ≥ 50 | 12.5 (≈ 4.31 µg/mL) | 25 (≈ 8.62 µg/mL) | 9.4 (≈ 3.24 µg/mL) | 9.4 (≈ 3.24 µg/mL) | 25 (≈ 8.62 µg/mL) | 50 (≈ 17.2 µg/mL) | > 50 | > 50 | 78 (≈ 26.9 µg/mL) | 43.2
COc1ccc2nc(C)cc(OCC(=O)NCc3ccccc3)c2c1 | 27.1 (≈ 9.12 µg/mL) | 0.78 (≈ 0.262 µg/mL) | 1.56 (≈ 0.525 µg/mL) | > 50 | > 50 | 6.25 (≈ 2.1 µg/mL) | > 50 | > 50 | 12.5 (≈ 4.2 µg/mL) | > 50 | > 50 | 3.13 (≈ 1.05 µg/mL) | > 50 | > 50 | > 50 | > 50 | > 100 | > 100
